Source: patent publication US9227991B2, “Anti-tumor bivalent platinum complex and preparation method for complex and ligand of complex” (SOUTHEAST UNIVERSITY, priority 2012, dated 2016)

What was measured:
[1] = system: human lung cancer cell A549; test: MTT cytotoxicity test, A549; format: cell-based; details: 48 hours
Experimental: (§1) This test example adopts MTT method to conduct cytotoxicity test on the complexes of the present invention and the common clinical anti-cancer platinum drugs.
(§2) Select cells in logarithmic phase, count them and inoculate them in a 96-well culture plate, at about 8000-10000 cells/well. Cultivate the cells overnight, administrate drug after the cells are attached to the wall, and set a drug group, a positive control group and a negative control group. The complex to be tested is prepared into a stock solution by using 5% glucose aqueous solution. Before use, it is diluted with cell culture medium into solutions at a series of concentrations. Each concentration has 3 duplicate wells. Cultivate for 48 hours after administration of drug, add 20 μL of 5 mg/mL MTT, incubate at 37° C. for 4 hours, remove the supernate and add 150 μL of DMSO-dissolved formazan. Determine OD value of every well at 490 nm wavelength by microplate reader, calculate inhibition rate, draw a concentration-inhibition rate curve and calculate value IC50.

[2] = system: human umbilical vein endothelial cell HUVEC; test: MTT cytotoxicity test, HUVEC; format: cell-based; details: 48 hours
Experimental: as §1, §2

[3] = system: human breast cancer cell MCF-7; test: MTT cytotoxicity test, MCF-7; format: cell-based; details: MCF-7, MTT, 48 hours
Experimental: as §1, §2

[4] = system: human breast cancer drug resistant cell MCF-7; test: MTT cytotoxicity test, MCF-7 drug resistant; format: cell-based; details: 48 hours
Experimental: as §1, §2

[5] = system: human breast cancer cell MDA-MB-231; test: MTT cytotoxicity test, MDA-MB-231; format: cell-based; details: MDA-MB-231, MTT, 48 hours
Experimental: as §1, §2

[6] = system: human gastric adenocarcinoma cell BGC823; test: MTT cytotoxicity test, BGC823; format: cell-based; details: 48 hours
Experimental: as §1, §2

[7] = system: human hepatoma carcinoma cell HepG-2; test: MTT cytotoxicity test, HepG2; format: cell-based; details: 48 hours
Experimental: as §1, §2

[8] = system: human erythroleukemia cell K562; test: MTT cytotoxicity test, K562; format: cell-based; details: 48 hours
Experimental: as §1, §2

[9] = system: human acute promyelocytic leukemia cell NB4; test: MTT cytotoxicity test, NB4; format: cell-based; details: 48 hours
Experimental: as §1, §2

[10] = system: human large cell lung cancer cell NCI-H460; test: MTT cytotoxicity test, NCI-H460; format: cell-based; details: 48 hours
Experimental: as §1, §2

[11] = system: human hepatoma carcinoma cell SMMC-7721; test: MTT cytotoxicity test, SMMC-7721; format: cell-based; details: SMMC-7721, MTT, 48 hours
Experimental: as §1, §2

mouse = details: cited from earlier work
[12] = system: mouse-transplanted tumor S180 sarcoma; test: Mouse-transplanted tumor animal model, S180; format: in vivo, ICR mice; details: S180 mice; for Number of Animal End of the test: 10 at beginning
Experimental: (§3) This test example adopts mouse-transplanted tumor animal model method to test the inhibitory effects of the complexes provided by the present invention on animal-transplanted tumor S180 sarcoma and Heps tumor.
Get ICR mice and inoculate solid tumor according to the research method of transplanted tumor. […] Administrate drug by intravenous injection for the first time 24 hours (d1) after the inoculation, administrate drug once every other day for a total of 4 times, at a dose of 0.4 ml/20 g each time. Kill and weigh the tumor-bearing mice days (d10) after the inoculation, separate and weigh the tumor mass, and conduct statistical treatment of all the obtained data (t-test). The inhibitory effect of the complexes on mouse-transplanted tumors S180 and Heps is shown in Table 2 and Table 3 respectively.

[13] = system: mouse-transplanted tumor Heps; test: Mouse-transplanted tumor animal model, Heps; format: in vivo, ICR mice; details: Heps mice; for Number of Animal End of the test: 8 at beginning
Experimental: as §3
Get ICR mice and inoculate solid tumor according to the research method of transplanted tumor. Weigh the mice 24 hours after the inoculation and randomly divide them into 7 groups, 8 mice per drug group. Administrate drug by intravenous injection for the first time 24 hours (d1) after the inoculation, administrate drug once every other day for a total of 4 times, at a dose of 0.4 ml/20 g each time. Kill and weigh the tumor-bearing mice days (d10) after the inoculation, separate and weigh the tumor mass, and conduct statistical treatment of all the obtained data (t-test). The inhibitory effect of the complexes on mouse-transplanted tumors S180 and Heps is shown in Table 2 and Table 3 respectively.

[14] = Acute toxicity test in mice (iv), Bliss method; details: both, Kunming, mouse, in vivo, iv
Experimental: (§4) The toxicity of the two platinum complexes provided by the present invention was preliminarily researched.
(§5) Select 50 Kunming mice of clean grade, 25 males and 25 females, with body weight 18˜22 g, randomly divide them into 5 groups, 10 mice in each group, and fast for 12 hours. […] The acceptance capacity of an animal is 0.4 mL/20 g. Observe continuously for 14 days after administration, and record toxic symptoms and death of mice.

Solubility in water = format: physicochemical
Experimental: As for the platinum complex prepared by the method of the present invention, the molecular structures of the compounds are determined by H NMR, HR ESI-MS and elemental analysis and their solubility in water was determined.

Kunming mice = test: Acute toxicity test in mice (iv), Bliss method; details: mice, iv via caudal vein, 14 days observation, Bliss method
Experimental: as §4, §5

[15] = 25 mg/kg iv every other day x4, X ± SD

Compound | IC50 [1] [µM] | IC50 [2] [µM] | IC50 [3] [µM] | IC50 [4] [µM] | IC50 [5] [µM] | IC50 [6] [µM] | IC50 [7] [µM] | IC50 [8] [µM] | IC50 [9] [µM] | IC50 [10] [µM] | IC50 [11] [µM] | Body weight (g) After administration [13, 15] [g] | Number of Animal End of the test ([13]; 25 mg/kg iv every other day x4) | Number of Animal End of the test ([13]; 50 mg/kg iv every other day x4) | further results
N.N.O=C([O-])C1(C(=O)[O-])CCC1.[Pt+2] [Carboplatin, carboplatin] | 137 | 102 | 109 | 457 | 93.3 | 43.2 | 99.1 | 118 | 12.6 | 30.6 | 52.7 | – | – | – | mouse LD50 values in literature (mouse): 139.00 mg/kg
N.N.[Cl][Pt][Cl] [Cis-platinum, cis-platinum] | 16.6 | 11.2 | 32.9 | 32.9 | 18.3 | 5.44 | 2.11 | 10.9 | – | – | – | – | – | – | –
O=C1[O][Pt]2([NH][C@@H]3CCCC[C@H]3[NH]2)[O]C1=O [Oxaliplatin, oxaliplatin] | 70.3 | 16.3 | 25.7 | 351 | 29.1 | 7.92 | 27.2 | 23.6 | – | 23.1 | 32.3 | – | – | – | –
[NH2][Pt]1([NH2])[O]C(=O)C2(CC(=O)C2)C(=O)[O]1 [GSH-5, cis-[3-ketone cyclobutane-1,1-dicarboxylic acid radical.diamineplatinum (II)]] | – | – | – | – | – | – | – | – | – | – | – | 22.13 ± 3.52 | 8 | 2 | Body weight (g) After administration ([12]; 15 mg/kg iv every other day x4, X ± SD): 22.50 ± 1.91 g; Number of Animal End of the test ([12]; 15 mg/kg iv every other day x4): 10; Body weight (g) After administration ([12]; 30 mg/kg iv every other day x4, X ± SD): 18.13 ± 1.76 g; Number of Animal End of the test ([12]; 30 mg/kg iv every other day x4): 8; Body weight (g) After administration ([13]; 50 mg/kg iv every other day x4, X ± SD): 13.50 ± 0.50 g; LD50 at 14 days [14]: 150 mg/kg; solubility (Solubility in water): 16 mg/mL
N[C@@H]1CCCC[C@H]1N.O=C1CC2(C1)C(=O)[O][Pt][O]C2=O [GSH-6, cis-[3-ketone-1,1-cyclobutane-dicarboxylic acid radical.trans-1,2-cyclohexanediamineplatinum(II)]] | 47.5 | 68.9 | 34.2 | 1350 | 36.3 | 8.9 | 31.6 | 36 | 3.1 | 11.9 | 216 | 18.10 ± 1.10 | 8 | 0 | Body weight (g) After administration ([12]; 10 mg/kg iv every other day x4, X ± SD): 20.60 ± 2.50 g; Tumor inhibition rate (%) ([12]; 10 mg/kg iv every other day x4, d10): 33.13%; Tumor weight ([12]; 10 mg/kg iv every other day x4, d10, X ± SD): 0.65 ± 0.14 g; Number of Animal End of the test ([12]; 10 mg/kg iv every other day x4): 10; Body weight (g) After administration ([12]; 20 mg/kg iv every other day x4, X ± SD): 18.60 ± 2.24 g; Tumor inhibition rate (%) ([12]; 20 mg/kg iv every other day x4, d10): 46.61%; Tumor weight ([12]; 20 mg/kg iv every other day x4, d10, X ± SD): 0.52 ± 0.13 g; Number of Animal End of the test ([12]; 20 mg/kg iv every other day x4): 10; Tumor inhibition rate (%) ([13]; 25 mg/kg iv every other day x4, d10): 35.44%; Tumor weight ([13]; 25 mg/kg iv every other day x4, d10, X ± SD): 0.84 ± 0.17 g; LD50 (acute toxicity test) (Kunming mice): 100 mg/kg
